The source of these data is publication PMC9333455, “Drug repurposing based on a quantum-inspired method versus classical fingerprinting uncovers potential antivirals against SARS-CoV-2” (PLoS Computational Biology, 2022).

Read-outs that look alike come from different tables or passages of the source.

The target of series [1] is SARS-CoV-2 RdRP (Severe acute respiratory syndrome coronavirus 2, UniProt P0DTD1). Put plainly: SARS-CoV-2 RdRP RNA polymerization activity, in vitro fluorescent assay. The series is classed as biochemical. The note with it: for inhibition of RdRP polymerization activity (in words): dose-response, relative to DMSO.
Series [2] relates to Vero E6 cells. Put plainly: Cytotoxicity in uninfected Vero E6 cells, MTT assay. A general note: Formazan colour is commonly taken as a measure of viable cells.
Series [3] relates to SARS-CoV-2. Put plainly: Total and genomic viral RNA levels in cell lysates, RT-qPCR. The series is classed as cell-based. The following applies: Vero E6 and Caco-2 cells, 48 hours after infection. (In general: Real-time PCR tracks product formation cycle by cycle.)
Series [4] deals with SARS-CoV-2 (England 02/2020/407073 isolate). Briefly: SARS-CoV-2 replication in Vero E6 cells, plaque assay. It is filed as cell-based.
Details of series [5]: method as in PMID 25251156. The following applies: halted progression from phase II clinical trials; cited from earlier work.
In series [6] the test system is SARS-CoV-2. The note with it: cited from earlier work.
The mark [7] stands for this setting: Severe acute respiratory syndrome coronavirus 2, Vero C1008, read-out: IC50 (50% decrease in the titre of supernatant virus), MOI 0.05, 48 h.
Setting [8] is: purified RdRP, 2 hours at 37°C, middle point between top and bottom plateaus, read-out: relative IC50 (RdRP polymerization activity).

With `COc1nc(N)nc2c1ncn2[C@@H]1O[C@H](COP(=O)(N[C@@H](C)C(=O)OCC(C)(C)C)Oc2cccc3ccccc23)[C@@H](O)[C@@]1(C)O` (some centres unmarked) [BMS-986094], in series [1], 18.4 µM corresponded to half-maximal inhibition (IC50) and the “inhibition of RdRP polymerization activity (in words)” value (shortened to “inhibition”) is listed as “inhibited RdRP polymerization activity in a dose-dependent manner”. Besides, the “concentration at which toxic to cells” value in series [2] (48 h) was > 100 µM. Also, the “total and genomic viral RNA levels in cell lysates (in words)” value in series [3] is on record as “consistently decreasing”. Further, the IC50 (in general, the concentration that inhibits the measured activity by half) in series [4] (setting [7]) was 26.6 µM. Moreover, the “cardiac effects (in words)” value in series [5] was “harmful cardiac effects”.
Regarding `CC(C)OC(=O)[C@H](C)N[P@+]([O-])(OC[C@H]1O[C@@](C#N)(c2ccc3c(N)ncnn23)[C@](C)(O)[C@@H]1OC(=O)C(C)C)Oc1ccccc1` [GS-6620], the “efficacy against SARS-CoV-2 (in words)” value in series [6] is listed as “lack of efficacy against SARS-CoV-2”.
Regarding `C/C1=C2/[N-][C@H]([C@H](CC(N)=O)[C@@]2(C)CCC(=O)NC[C@@H](C)OP(=O)([O-])O[C@H]2[C@@H](O)[C@@H](n3cnc4cc(C)c(C)cc43)O[C@@H]2CO)[C@]2(C)N=C(/C(C)=C3N=C(/C=C4N=C1[C@@H](CCC(N)=O)C\4(C)C)[C@@H](CCC(N)=O)[C@]\3(C)CC(N)=O)[C@@H](CCC(N)=O)[C@]2(C)CC(N)=O.[Co+3].[OH-]` [Hydroxocobalamin, hydroxocobalamin], in series [1], the “inhibition” value is “inhibited RdRP polymerization activity in a dose-dependent manner”. For the same compound, the IC50 in series [1] (setting [8]) was found to be 90.4 µM.
For the compound `C/C1=C2/[N-]C([C@H](CC(N)=O)[C@@]2(C)CCC(=O)NC[C@@H](C)OP(=O)([O-])O[C@H]2[C@@H](O)[C@@H](n3cnc4cc(C)c(C)cc43)O[C@@H]2CO)[C@]2(C)N=C(/C(C)=C3N=C(/C=C4N=C1[C@@H](CCC(N)=O)C\4(C)C)[C@@H](CCC(N)=O)[C@]\3(C)CC(N)=O)[C@@H](CCC(N)=O)[C@]2(C)CC(N)=O.[CH2-][C@H]1O[C@@H](n2cnc3c(N)ncnc32)[C@@H](O)[C@@H]1O.[Co+3]` [Cobamamide, cobamamide], in series [1], the “inhibition” value is “inhibited RdRP polymerization activity in a dose-dependent manner”. In addition, the 50% inhibitory concentration (IC50) is 54.4 µM in series [1] (setting [8]) and 403 µM in series [4] (read-out: IC50 (50% decrease in the titre of supernatant virus), MOI 0.05, 48 h). In series [2] (highest dose of 1mM), the cytotoxicity entry was “up to 20%”.
Regarding `C/C1=C2/[N-][C@H]([C@H](CC(N)=O)[C@@]2(C)CCC(=O)NC[C@H](C)OP(=O)([O-])O[C@H]2[C@@H](O)[C@@H](n3cnc4cc(C)c(C)cc43)O[C@@H]2CO)[C@]2(C)N=C(/C(C)=C3N=C(/C=C4N=C1[C@@H](CCC(N)=O)C\4(C)C)[C@@H](CCC(N)=O)[C@]\3(C)CC(N)=O)[C@@H](CCC(N)=O)[C@]2(C)CC(N)=O.[CH3-].[Co+3]` [Mecobalamin, methylcobalamin], in series [1], the “inhibition” value is “inhibited RdRP polymerization activity in a dose-dependent manner”. Further, the half-maximal inhibitory concentration (IC50) in series [1] (setting [8]) stood at 85.7 µM.
In the case of `CCC(CC)COC(=O)[C@H](C)N[P@](=O)(OC[C@H]1O[C@@](C#N)(c2ccc3c(N)ncnn23)[C@H](O)[C@@H]1O)Oc1ccccc1` [Remdesivir], the “cytotoxic effects (in words)” value in series [2] is on record as “did not exert observable cytotoxic effects”. Moreover, the IC50 in series [4] (setting [7]) turned out to be 1 µM.
